Test system: chicks fed a phytic phosphorous basal diet
Experiment: chicken model: chicks fed Pi deficient phytic phosphorous diet with added 1α-hydroxyvitamin D3
Type: in vivo, Single Comb White Leghorn chicks
Excerpt: Animal model: The dietary sources of inorganic phosphate (Pi) are largely mineral phosphates or phosphate from animal tissues and products (milk and eggs). These Pi sources are readily available for absorption by monogastric animals. In diseases where the uptake of phosphorous requires intervention, patients are usually required to avoid these foods and take Pi binders. While this is a useful strategy in reducing the absorption of Pi, patients taking alternative food (e.g., plant based foods) during the treatment of diseases such as end stage renal failure is exposed to another source of phosphate that may serve as a pool of Pi for absorption. Phytic phosphorous (PP) represents 70-80% of all phosphorous in plant based foods. PP is normally unavailable for absorption in monogastric animals when consumed and is excreted with the fecal waste.
Providing 1α-hydroxyvitamin D3 to the chickens fed the Pi deficient diet raised the serum phosphate level. Therefore, this model can be used to test whether anti-phytic acid antibodies would be effective in reducing increased serum phosphate levels from a phytic origin caused by 1α-hydroxyvitamin D3.
Animal experiment: The model used in this study was described by Biehl and Baker, J. Nutr. 1997, 127:2054-2059 with the exception of antibodies to phytic acid. The negative control used in this study was a Pi deficient diet (Pi=inorganic phosphate which are largely mineral phosphates or phosphate from animal tissues and products such as milk and eggs), where the dietary phosphorous used was phytic phosphate. […] The positive control was the same diet as the negative control, but supplemented with 1α-hydroxyvitamin D3 (20 μg/kg diet, Sigma). […] The remaining dietary treatment was the positive control plus the antibody to phytic acid (1 g of dried egg yolk powder produced as described above). The negative and positive controls were fed 1 g/kg diet of dried yolk powder from hens injected with the adjuvant. These egg yolk powders lacked specific antibodies.
A total of 3 treatments were used (negative control, positive control, positive control plus antibody to phytic acid). Six one-day old male Single Comb White Leghorn chicks were assigned to each of the dietary treatments. Chicks were fed the dietary treatments for 10 days, weighed, and blood sampled for determining plasma phosphorous concentration using a Roche/Hitachi analyzer (based on the reaction of phosphate with ammonium molybdate to form ammonium phosphomolybdate without reduction). Excreta (n=1) was collected under each group of 6 chicks for mineral analysis. Chicks were euthanized and the right tibiotarsus of each chick was collected, dried, ether extracted, and ashed for the determination of bone mineral content of fat free, dried bone.
t-Test comparison were used to determine if (1) the addition of 1α-hydroxyvitamin D3 changed the endpoint relative to the negative control diet and (2) the addition of antibody to phytate to the 1α-hydroxyvitamin D3 diet (positive control) reduced the plasma phosphate level. P values are given in the results presented below.

[1] = relative to Pi deficient negative control diet

Structure (SMILES): C=C1/C(=C\C=C2/CCC[C@]3(C)[C@@H]([C@H](C)CCCC(C)C)CC[C@@H]23)C[C@@H](O)C[C@@H]1O [1α-hydroxyvitamin D3]
- Plasma Phosphate (chicks, Pi deficient diet, 10 days, 1α-hydroxyvitamin D3 20 μg/kg diet alone, or plus antibody 1 g/kg diet dried egg yolk powder): 6.70 mg/dL
- excreta phosphorous (excreta (n=1) collected under each group of 6 chicks): 0.5%
- decrease of excreta phosphorous [1]: 22%
- increase of bone ash [1]: 8%
- increase of plasma phosphorous [1]: 71%
- bone ash (right tibiotarsus, fat free dried bone, after 10 days of diet): 37.4%

— patent publication US20100143385A1, “METHODS FOR REDUCING PHOSPHATE ABSORPTION” (priority 2006, published 2010)
